Reference: patent US8367328B2, “Method for synthesizing DNA” (Takara Bio Inc., priority 1998, dated 2013)

Biological target: T1, Pfu DNA Polymerase II (Pyrococcus furiosus, UniProt P81409+P81412)
T1 construct: made in house; host or cells: Escherichia coli JM109/pFU1001 (FERM BP-5579)
T1 sequence (P81409 1-1263): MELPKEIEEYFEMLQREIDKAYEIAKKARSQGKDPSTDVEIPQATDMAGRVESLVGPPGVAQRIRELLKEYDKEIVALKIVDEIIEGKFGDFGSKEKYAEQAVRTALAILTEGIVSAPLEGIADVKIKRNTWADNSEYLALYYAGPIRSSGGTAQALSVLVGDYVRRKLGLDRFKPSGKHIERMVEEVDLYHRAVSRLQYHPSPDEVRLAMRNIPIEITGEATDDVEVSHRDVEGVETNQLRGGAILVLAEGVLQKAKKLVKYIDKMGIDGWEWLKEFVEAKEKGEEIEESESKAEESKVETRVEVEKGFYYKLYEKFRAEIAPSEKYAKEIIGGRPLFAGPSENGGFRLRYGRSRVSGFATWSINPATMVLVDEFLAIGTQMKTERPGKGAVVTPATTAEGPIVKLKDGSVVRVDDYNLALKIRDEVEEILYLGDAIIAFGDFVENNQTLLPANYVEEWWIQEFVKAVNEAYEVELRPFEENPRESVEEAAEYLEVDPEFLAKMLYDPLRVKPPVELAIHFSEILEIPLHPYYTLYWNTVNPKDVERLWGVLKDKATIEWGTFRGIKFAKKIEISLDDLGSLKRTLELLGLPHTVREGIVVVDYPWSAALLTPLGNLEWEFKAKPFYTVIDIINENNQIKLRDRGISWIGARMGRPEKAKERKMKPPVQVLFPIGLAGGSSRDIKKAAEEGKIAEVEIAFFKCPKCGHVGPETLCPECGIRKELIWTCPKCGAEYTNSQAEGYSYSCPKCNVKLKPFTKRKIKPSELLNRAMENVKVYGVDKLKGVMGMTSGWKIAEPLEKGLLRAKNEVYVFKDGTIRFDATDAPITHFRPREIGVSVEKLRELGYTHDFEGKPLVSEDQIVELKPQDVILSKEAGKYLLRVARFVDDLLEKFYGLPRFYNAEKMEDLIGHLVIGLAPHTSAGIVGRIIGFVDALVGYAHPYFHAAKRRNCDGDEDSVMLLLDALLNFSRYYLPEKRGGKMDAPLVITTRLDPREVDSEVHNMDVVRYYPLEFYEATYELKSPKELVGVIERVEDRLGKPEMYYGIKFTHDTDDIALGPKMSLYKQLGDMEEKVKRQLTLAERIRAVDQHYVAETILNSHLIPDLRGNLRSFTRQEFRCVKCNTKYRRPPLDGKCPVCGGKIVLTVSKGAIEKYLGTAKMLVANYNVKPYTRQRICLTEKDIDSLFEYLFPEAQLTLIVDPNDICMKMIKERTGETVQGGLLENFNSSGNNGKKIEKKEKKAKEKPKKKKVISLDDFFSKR
T1 sequence (P81412 1-613): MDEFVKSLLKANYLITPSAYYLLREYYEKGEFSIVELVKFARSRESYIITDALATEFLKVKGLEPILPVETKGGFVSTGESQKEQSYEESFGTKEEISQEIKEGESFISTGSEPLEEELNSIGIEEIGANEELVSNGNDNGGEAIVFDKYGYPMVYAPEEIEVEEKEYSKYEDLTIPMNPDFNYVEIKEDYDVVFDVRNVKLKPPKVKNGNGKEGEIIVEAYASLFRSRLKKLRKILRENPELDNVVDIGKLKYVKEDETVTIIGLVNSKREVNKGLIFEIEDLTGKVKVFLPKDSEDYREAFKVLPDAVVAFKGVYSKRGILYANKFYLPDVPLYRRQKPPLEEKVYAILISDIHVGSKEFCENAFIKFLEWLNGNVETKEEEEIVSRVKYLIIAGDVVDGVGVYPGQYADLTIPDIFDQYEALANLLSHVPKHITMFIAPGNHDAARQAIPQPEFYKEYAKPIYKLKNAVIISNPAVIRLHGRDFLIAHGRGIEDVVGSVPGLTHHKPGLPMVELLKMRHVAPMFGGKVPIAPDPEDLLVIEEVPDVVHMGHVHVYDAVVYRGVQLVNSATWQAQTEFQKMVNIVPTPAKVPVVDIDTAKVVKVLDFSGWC
Test: PCR with Pfu DNA Polymerase II in the presence of acidic substances (λDNA template)
Format: biochemical
Conditions: 0.5 kb fragment; 100 pg λDNA, primers λ1/λ2, 25 cycles 98°C 5 s–66°C 15 s; amount added 1 μg
Procedure: A reaction mixture comprising λDNA as a template, primers λ1 and λ3 as a primer pair, and Pfu DNA Polymerase II as DNA polymerase was prepared, and PCR was carried out. The composition of the reaction mixture is as follows.
10 mM Tris-hydrochloric acid (pH 9.2), 75 mM potassium chloride, 6 mM magnesium chloride, 0.4 mM each of dATP, dCTP, dGTP and dTTP, 0.01% BSA, 1.25 U of Pfu DNA Polymerase II, 500 pg of λDNA, and 5 pmol each of primers λ1 and λ3 (a final volume being 25 μl). […]
Using the sulfated-fucose-containing Polysaccharide-F obtained in Example 6 described above, dextran sulfate powder (manufactured by Onco), or sodium alginate (100 to 150 centipoises, manufactured by Wako Pure Chemicals), the effects of these acidic substances on the activity of Pfu DNA Polymerase II were examined. A reaction mixture comprising λDNA as a template, primers λ1 and λ2 as a primer pair, and Pfu DNA Polymerase II as DNA polymerase was prepared, and PCR was carried out. The composition of the reaction mixture is as follows.
(§1) 10 mM Tris-hydrochloric acid, pH 9.2, 75 mM potassium chloride, 6 mM magnesium chloride, 0.4 mM each of dATP, dCTP, dGTP and dTTP, 0.01% BSA, 1.25 U of Pfu DNA Polymerase II, 100 pg of λDNA, and 5 pmol each of primers λ1 and λ2 (a final volume being 25 μl). Further, 10 ng of the sulfated-fucose-containing polysaccharide-F, 10 ng of dextran sulfate powder, or 1 μg of sodium alginate was respectively added to the above reaction mixture.
(§2) The reaction in 25 cycles was carried out for each of these reaction mixtures, wherein one cycle of reaction comprises a process consisting of 98° C., 5 seconds—66° C., 15 seconds. Thereafter, 5 μl of the resulting reaction mixture was subjected to electrophoresis on 1% agarose gel containing ethidium bromide in an amount of 0.00005%, whereby an amplified fragment was confirmed.
Further, studies were conducted on the effects of the sulfated-fucose-containing polysaccharide-F obtained in Example 6 described above, the sulfated-fucose-containing polysaccharide-U obtained in Example 7 described above, or sodium polyglutamate (manufactured by Sigma) as an acidic substance. A reaction mixture for PCR was prepared in the same manner as described above except for changing the amount of template λDNA to 500 pg and the primer pairs to primers λ1 and λ3. Five nanograms of the sulfated-fucose-containing polysaccharide-F, 5 ng, 10 ng, 20 ng or 30 ng each of the sulfated-fucose-containing polysaccharide-U, or 250 ng, 500 ng, 750 ng or 1000 ng each of sodium polyglutamate was respectively added to the above reaction mixture.
as §2, with “reaction” for “reaction in 25 cycles”, “in 30 cycles,” for “for each of these reaction mixtures,”, “After the termination of the reaction,” for “Thereafter,”
Using the sulfated-fucose-containing polysaccharide-F obtained in Example 6 described above, the effects on the activity of Pfu DNA Polymerase II were examined. A reaction mixture comprising λDNA as a template, primers λ1 and λ2 as a primer pair, and Pfu DNA Polymerase II as DNA polymerase was prepared, and PCR was carried out. The composition of the reaction mixture is as follows.
as §1, with “500” for “100”, “polysaccharide-F” for “polysaccharide-F, 10 ng of dextran sulfate powder, or 1 μg of sodium alginate”
The reaction in 30 cycles was carried out for each of these reaction mixtures, wherein one cycle of reaction comprises a process consisting of 98° C., 5 seconds—66° C., 15 seconds. […]

Question: For sodium alginate, which “Amplification Results” value is on record?
Answer: The value was “+ (Amplification being observed)”.
